Experimental data: patent US20220144854A1, “MACROCYCLIC COMPOUNDS” (ZENO MANAGEMENT, INC., priority 2019, published 2022)

What was measured:
[1] = from COC(=O)c1c(CCCI)c2ccc(Cl)c(-c3c(CN(Cc4cc(CCc5cc(O)c6ccccc6c5)n(C)n4)C(=O)OC(C)(C)C)nn4c3CCC4)c2n1C; ether bond; 21-membered ring; K2CO3; MeCN; 3.61 mM; 60.0 °C
[2] = test system: NCI-H929 (ATCC CRL-9068) cells; assay: NCI-H929 cell proliferation assay (CellTiter-Glo); format: cell-based; details: 72 h of compound treatment
Description: Cell proliferation was measured using the CellTiter-Glo® Luminescent Cell Viability Assay. The assay involved the addition of a single reagent (CellTiter-Glo® Reagent) directly to cells cultured in serum-supplemented medium.
Each compound evaluated was prepared as a DMSO stock solution (10 mM). Compounds were tested in duplicate on each plate, with a 10-point serial dilution curve (1:3 dilution). Compound treatment ([…]) was added from the compound dilution plate to the cell plate. The highest compound concentration was 10 μM (final), with a 0.1% final DMSO concentration. Plates were then incubated at 37° C., 5% CO2. After 72 h of compound treatment, cell plates were equilibrated at rt for approximately 30 mins. An equi-volume amount of CellTiter-Glo® Reagent (40 μL) was added to each well. Plates were mixed for 2 mins on an orbital shaker to induce cell lysis and then incubated at rt for 10 mins to stabilize the luminescent signal. Luminescence was recorded using an Envision plate reader according to CellTiter-Glo protocol. IC50 of each compound was calculated using GraphPad Prism by nonlinear regression analysis.

Mcl-1 = Mcl-1 (Homo sapiens, UniProt Q07820); assay: Mcl-1 Homogeneous Time Resolved Fluorescence (HTRF) binding assay; details: HTRF; 4 nM Mcl-1, 100 nM FAM-Bak peptide; 10-dose, singlicate; read-out: Mcl-1 IC50
Mcl-1, sequence (Q07820 whole entry): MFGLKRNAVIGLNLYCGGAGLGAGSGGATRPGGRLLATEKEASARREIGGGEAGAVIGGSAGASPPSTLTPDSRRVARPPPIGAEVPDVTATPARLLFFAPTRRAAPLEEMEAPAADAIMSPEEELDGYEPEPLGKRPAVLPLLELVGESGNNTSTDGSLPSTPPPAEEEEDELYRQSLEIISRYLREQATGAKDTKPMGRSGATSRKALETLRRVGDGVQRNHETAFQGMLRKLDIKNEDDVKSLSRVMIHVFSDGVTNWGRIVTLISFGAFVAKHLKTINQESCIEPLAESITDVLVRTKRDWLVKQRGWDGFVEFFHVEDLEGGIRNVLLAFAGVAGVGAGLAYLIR

COC(=O)c1c2c3ccc(Cl)c(c3n1C)-c1c(nn3c1CCC3)CN(C(=O)OC(C)(C)C)Cc1cc(n(C)n1)CCc1cc(c3ccccc3c1)OCCC2
ring closure, isolated yield [1]: 40%

Cc1c2c(nn1C)CSCc1cc(n(C)n1)CSc1cc(c3ccccc3c1)OCCCc1c(C(=O)O)n(C)c3c-2c(F)ccc13 (single isomer, unassigned) [Example 14A, (Z)-1^6-Fluoro-1^1,2^1,2^5,6^1-tetramethyl-1^1H,2^1H,6^1H-10-oxa-4,8-dithia-1(7,3)-indola-2(4,3),6(3,5)-dipyrazola-9(3,1)-naphthalenacyclotridecaphane-1^2-carboxylic acid]
IC50 ([2]; Homo sapiens, NCI-H929, 72 h): < 0.1 µM
IC50 (Mcl-1): < 0.01 µM

CCn1nc2cc1CSc1cc(c3ccccc3c1)OCCCc1c(C(=O)O)n(C)c3c(c(F)ccc13)-c1c(C)nn(C)c1CSC2 (single isomer, unassigned) [Example 15A, (Z)-6^1-Ethyl-1^6-fluoro-1^1,2^1,2^3-trimethyl-1^1H,2^1H,6^1H-10-oxa-4,8-dithia-1(7,3)-indola-2(4,5),6(3,5)-dipyrazola-9(3,1)-naphthalenacyclotridecaphane-1^2-carboxylic acid]
IC50 ([2]; Homo sapiens, NCI-H929, 72 h): > 1 µM
IC50 (Mcl-1): > 0.1 µM

Cc1nn(C)c2c1-c1c(F)ccc3c(c(C(=O)O)n(C)c13)CCCOc1cc(cc3ccccc13)SCc1cc(nn1C(C)C)CSC2 (single isomer, unassigned) [Example 16A, (Z)-1^6-Fluoro-6^1-isopropyl-1^1,2^1,2^3-trimethyl-1^1H,2^1H,6^1H-10-oxa-4,8-dithia-1(7,3)-indola-2(4,5),6(3,5)-dipyrazola-9(3,1)-naphthalenacyclotridecaphane-1^2-carboxylic acid]
IC50 [2]: < 0.1 µM
IC50 (Mcl-1): < 0.01 µM

Cc1nn(C)c2c1-c1c(F)ccc3c(c(C(=O)O)n(C)c13)CCCOc1cc(cc3ccccc13)SCc1cc(nn1CC(C)C)CSC2 (single isomer, unassigned) [Example 17A, (Z)-1^6-Fluoro-6^1-isobutyl-1^1,2^1,2^3-trimethyl-1^1H,2^1H,6^1H-10-oxa-4,8-dithia-1(7,3)-indola-2(4,5),6(3,5)-dipyrazola-9(3,1)-naphthalenacyclotridecaphane-1^2-carboxylic acid]
IC50 [2]: > 1 µM
IC50 (Mcl-1): > 0.1 µM

Cc1nn(C)c2c1-c1c(F)ccc3c(c(C(=O)O)n(C)c13)CCCOc1cc(cc3ccccc13)SCc1cc(nn1CC1CC1)CSC2 (single isomer, unassigned) [Example 18A]
IC50 ([2]; Homo sapiens, NCI-H929, 72 h): > 1 µM
IC50 (Mcl-1): > 0.1 µM

Cc1nn(C23CC(C2)C3)c2c1-c1c(Cl)ccc3c(c(C(=O)O)n(C)c13)CCCOc1cc(cc3ccccc13)SCc1cc(nn1C)CSC2 (single isomer, unassigned) [Example 20A, (Z)-2^1-(Bicyclo[1.1.1]pentan-1-yl)-1^6-chloro-1^1,2^3,6^1-trimethyl-1^1H,2^1H,6^1H-10-oxa-4,8-dithia-1(7,3)-indola-2(4,5),6(3,5)-dipyrazola-9(3,1)-naphthalenacyclotridecaphane-1^2-carboxylic acid]
IC50 [2]: > 1 µM
IC50 (Mcl-1): 0.01 to 0.1 µM

Cc1nn(C23CC(C2)C3)c2c1-c1c(Cl)ccc3c(c(C(=O)O)n(C)c13)CCCOc1cc(cc3ccccc13)SCc1cc(nn1C)CSC2 (single isomer, unassigned) [Example 20B, (Z)-2^1-(Bicyclo[1.1.1]pentan-1-yl)-1^6-chloro-1^1,2^3,6^1-trimethyl-1^1H,2^1H,6^1H-10-oxa-4,8-dithia-1(7,3)-indola-2(4,5),6(3,5)-dipyrazola-9(3,1)-naphthalenacyclotridecaphane-1^2-carboxylic acid]
IC50 [2]: < 0.1 µM
IC50 (Mcl-1): < 0.01 µM

Cc1nn(C23CC(C2)C3)c2c1-c1c(Cl)ccc3c(c(C(=O)O)n(C)c13)CCCOc1cc(cc3ccccc13)SCc1cc(n[nH]1)CSC2 (single isomer, unassigned) [Example 21B, (Z)-2^1-(Bicyclo[1.1.1]pentan-1-yl)-1^6-chloro-1^1,2^3-dimethyl-1^1H,2^1H,6^1H-10-oxa-4,8-dithia-1(7,3)-indola-2(4,5),6(3,5)-dipyrazola-9(3,1)-naphthalenacyclotridecaphane-1^2-carboxylic acid]
IC50 ([2]; Homo sapiens, NCI-H929, 72 h): < 0.1 µM
IC50 (Mcl-1): < 0.01 µM
